Here are results for five molecules from paper PMC9031227, “Structure-Activity Relationship Investigations of Novel Constrained Chimeric Peptidomimetics of SOCS3 Protein Targeting JAK2” (Pharmaceuticals, 2022).

Molecules are shown by their SMILES. “Also recorded” adds a separate entry of the source. Where a SMILES comes first, the peptide text is derived from it. Bridges are numbered along the chain shown (N, C = ends). [ ]: non-standard residue; d: D form. R8 = C=CCCCCCC[C@@](C)(N)C(=O)O; S5 = C=CCCC[C@](C)(N)C(=O)O; βAla = NCCC(=O)O

Data set [1] has as its target T1, His-tagged Catalytic Domain of JAK2 (residues 826–1132) (Homo sapiens, UniProt O60674).
T1 construct: His-tagged Catalytic Domain of JAK2 (residues 826–1132); purchased Carna Biosciences
The data set can be described thus: MicroScale Thermophoresis (MST) binding to JAK2 catalytic domain. The note with it: RED-tris-NTA labelled His-JAK2 catalytic domain, 25 °C, 50 mM Tris-HCl, 150 mM NaCl, 0.05% Brij35, 1 mM DTT, 10% glycerol, 15% TFE, pH 7.5, Langmuir isotherm fit. Here is the method:
MST experiments were carried out with a Monolith NT 115 system (NanoTemper Technologies, München, Germania) equipped with 40% LED and 40% IR-laser power. […] The protein concentration was adjusted to 200 nM in labeling buffer (Nano Temper Technologies), while the dye concentration was set to 100 nM. Equal volumes (100 μL) of protein and fluorescent dye solutions were mixed and incubated at room temperature in the dark for 30 min. KIRCONG chim analogues were used in the following concentrations: KIRCONG amide 459 μM, KIRCONG disulfide 470 μM, KIRCONG i/i+5 525 μM, and KIRCONG i/i+7 585 μM in labeling buffer. Standard capillaries were employed for analysis, at 25 °C in 50 mM Tris-HCl, 150 mM NaCl, 0.05% Brij35, 1 mM DTT, 10% glycerol, 15% TFE buffer at pH 7.5, as already reported. The equation implemented by the software MO-S002 MO Affinity Analysis, used for fitting data at different concentrations, is based on Langmuir binding isotherm.
To evaluate the ability of KIRCONG analogues to recognize JAK2 catalytic domain, in vitro MST experiments were carried out (Figure 5), keeping JAK2 concentration constant and increasing ligands’ concentrations.

Data set [2] in a line: Serum stability in fetal bovine serum. In kind it is in vitro ADME. Particulars: 37 °C; for improvement of stability to proteases after 24 h: 25% FBS, 24 h of analysis, compared with the linear peptide; for metabolised at 3 h, 500 µM: read-out: degraded after 3 h of incubation. As for the experimental part:
KIRCONG analogues (~1 mg/mL, 500 μM on average), were incubated with fetal bovine serum (FBS) at 25% (w/v) at 37 °C as previously described. At the following time points: 0, 3, 17, 20, 23 and 42 h, 50 µL aliquots of the solutions were mixed with 50 µL of 15% trichloroacetic acid (TCA) to allow the precipitation of serum proteins, they were stored at −20 °C for at least 15 min. After centrifugation (13,000 rpm for 15 min) the supernatants were recovered. Samples were analyzed by RP-HPLC on a HPLC LC-4000 series (Jasco) equipped with UV detector using a C18-Kinetek column from Phenomenex (Milan, Italy), by employing a gradient from 5 to 70% of B (acetonitrile 0.1% TFA) versus A (water 0.1% TFA) in 20 min. Peptide compounds were detected by recording the absorbance at 210 nm and percentages were quantified by assuming 100% their peak areas at t = 0. All stability tests were performed at least in triplicates and reported data are averaged values.
To evaluate if introduced chemical modifications in KIRCONG analogues influence their stabilities to proteolytic degradation, pure compounds were incubated with fetal bovine serum (FBS) and the decrease of chromatographic peaks was followed during time In Figure 4, the area percentages of new derivatives of KIRCONG chim versus time are reported. After 3 h of incubation, KIRCONG chim is degraded by 30% while KIRCONG disulfide of 20% and others less than 10%.
Figure 4 Serum stability assay of KIRCONG chim derivatives. The serum stability was evaluated by incubation in 25% FBS for 42 h. Residual peptide amount is expressed as the percentage of the initial amount versus time.

Data set [3] is described as follows: Solubility observations in TFE/aqueous mixtures (CD and NMR samples). In kind it is physicochemical. Here is the method: CD spectroscopy experiments were carried out by employing a Jasco J-815 spectropolarimeter (JASCO, Tokyo, Japan), at room temperature in the spectral range 190–260 nm and spectra are averaged over two scans, to which blanks were subtracted. CD signals were converted to mean residue ellipticity with deg* cm^2*dmol^−1*res^−1 as units. Scan speed value was 20 nm/min, band width 2.0 nm, resolution 0.2 nm, sensitivity 50 mdeg and response 4 s. Samples were prepared by dilution of freshly prepared stock solutions in 100% TFE (2,2,2-Trifluoroethanol) (1 mM on average). In the CD samples compound concentrations were 100 μM. Spectra were acquired in a quartz cuvette with a path-length of 0.1 cm in mixtures TFE/phosphate buffer, 10 mM at pH 7.4 [52].
NMR spectra of KIRCONG i/i+5 and KIRCONG i/i+7 stapled peptides were registered at 25 °C on a Varian Unity Inova 600 MHz spectrometer provided with a cold probe. […] NMR spectra for KIRCONG i/i+7 were recorded in H2O/TFE 60/40 v/v (peptide concentration 411 μM, pH 4.65). […] To conduct NMR structural analyses the following 2D [^1H, ^1H] experiments were recorded: TOCSY (Total Correlation Spectroscopy), NOESY (Nuclear Overhauser Enhancement Spectroscopy), ROESY (Rotating Frame Overhauser Enhancement Spectroscopy) and DQFCOSY (Double Quantum-Filtered Correlated Spectroscopy). […]

[4] abbreviates: 25% (w/v) fetal bovine serum, 25% (w/v) FBS, peptide ~1 mg/mL (500 µM on average), TCA precipitation, RP-HPLC C18, UV 210 nm, peak area vs t = 0, mean of at least triplicates.

T1 sequence (O60674 826-1132): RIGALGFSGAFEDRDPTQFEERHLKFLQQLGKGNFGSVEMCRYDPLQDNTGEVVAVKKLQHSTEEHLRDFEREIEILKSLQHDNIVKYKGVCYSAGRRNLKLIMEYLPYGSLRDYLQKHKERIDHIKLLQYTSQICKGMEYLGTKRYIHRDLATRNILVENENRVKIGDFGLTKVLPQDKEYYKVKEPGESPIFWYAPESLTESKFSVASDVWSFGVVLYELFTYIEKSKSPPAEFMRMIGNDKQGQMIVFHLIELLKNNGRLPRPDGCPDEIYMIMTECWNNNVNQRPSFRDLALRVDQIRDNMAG

In data set [1], `CC(C)C[C@@H]1NC(=O)[C@H](CCC(N)=O)NC(=O)[C@H](Cc2ccc(O)cc2)NC(=O)[C@H](CCC(=O)O)NC(=O)[C@H](CO)NC(=O)[C@H](CCCCN)NC(=O)[C@H](CO)NC(=O)[C@H](CO)NC(=O)[C@H](Cc2ccccc2)NC(=O)CCNC(=O)[C@@H](N)CCCCNC(=O)CC[C@@H](C(=O)NCC(=O)O)NC(=O)[C@H]([C@@H](C)O)NC(=O)[C@H](C(C)C)NC(=O)[C@H](C)NC(=O)[C@H](CO)NC(=O)[C@H](Cc2c[nH]c3ccccc23)NC(=O)[C@H](Cc2ccc(O)cc2)NC(=O)[C@H](Cc2ccccc2)NC(=O)CCNC(=O)CCNC1=O` [KIRCONG amide] (H-K[βAla]FSSKSEYQL[βAla][βAla]FYWSAVTEG-OH; lactam 1-21) gave a dissociation constant (Kd) of 200 µM. In addition, the “improvement of stability to proteases after 24 h” value in data set [2] is on record as “do not produce a significant improvement of stability”.
As to `CC(=O)N[C@@H](CCCCN)C(=O)NCCC(=O)N[C@@H](Cc1ccccc1)C(=O)N[C@@H](CO)C(=O)N[C@@H](CO)C(=O)N[C@@H](CCCCN)C(=O)N[C@@H](CO)C(=O)N[C@@H](CCC(=O)O)C(=O)N[C@@H](Cc1ccc(O)cc1)C(=O)N[C@@H](CCC(N)=O)C(=O)N[C@@H](CC(C)C)C(=O)NCCC(=O)NCCC(=O)N[C@@H](Cc1ccccc1)C(=O)N[C@@H](Cc1ccc(O)cc1)C(=O)N[C@@H](Cc1c[nH]c2ccccc12)C(=O)N[C@@H](CO)C(=O)N[C@@H](C)C(=O)N[C@H](C(=O)N[C@H](C(N)=O)[C@@H](C)O)C(C)C` [KIRCONG chim, reference compound] (Ac-K[βAla]FSSKSEYQL[βAla][βAla]FYWSAVT-NH2), in data set [2] (25% (w/v) FBS, peptide ~1 mg/mL (500 µM on average), 42 h, TCA precipitation, RP-HPLC C18, UV 210 nm, peak area vs t = 0, mean of at least triplicates), the “residual concentration after 42 h” value was “completely degraded”. The metabolised at 3 h, 500 µM in data set [2] (setting [4]) turned out to be 30%.
On to `CC(C)C[C@@H]1NC(=O)[C@H](CCC(N)=O)NC(=O)[C@H](Cc2ccc(O)cc2)NC(=O)[C@H](CCC(=O)O)NC(=O)[C@H](CO)NC(=O)[C@H](CCCCN)NC(=O)[C@H](CO)NC(=O)[C@H](CO)NC(=O)[C@H](Cc2ccccc2)NC(=O)CCNC(=O)[C@@H](N)CSSC[C@@H](C(=O)NCC(=O)O)NC(=O)[C@H]([C@@H](C)O)NC(=O)[C@H](C(C)C)NC(=O)[C@H](C)NC(=O)[C@H](CO)NC(=O)[C@H](Cc2c[nH]c3ccccc23)NC(=O)[C@H](Cc2ccc(O)cc2)NC(=O)[C@H](Cc2ccccc2)NC(=O)CCNC(=O)CCNC1=O` [KIRCONG disulfide] (H-C[βAla]FSSKSEYQL[βAla][βAla]FYWSAVTCG-OH; disulfide 1-21), for which the affinity in data set [1], expressed as Kd, was 600 µM. Moreover, the metabolised at 3 h, 500 µM in data set [2] (setting [4]) turned out to be 20%. For the same molecule, the “improvement of stability to proteases after 24 h” value in data set [2] is on record as “do not produce a significant improvement of stability”.
With `CC(C)C[C@H](NC(=O)[C@H](CCC(N)=O)NC(=O)[C@H](Cc1ccc(O)cc1)NC(=O)[C@H](CCC(=O)O)NC(=O)[C@H](CO)NC(=O)[C@H](CCCCN)NC(=O)[C@H](CO)NC(=O)[C@H](CO)NC(=O)[C@@H](N)Cc1ccccc1)C(=O)NCCC(=O)N[C@@]1(C)CCCC=CCCC[C@@](C)(C(=O)N[C@H](C(=O)N[C@H](C(=O)NCC(=O)O)[C@@H](C)O)C(C)C)NC(=O)[C@H](CO)NC(=O)[C@H](Cc2c[nH]c3ccccc23)NC(=O)[C@H](Cc2ccc(O)cc2)NC(=O)[C@H](Cc2ccccc2)NC1=O` [KIRCONG i/i+5] (H-FSSKSEYQL[βAla][S5]FYWS[S5]VTG-OH; staple 11-16), in data set [1], the KD entry is “did not allow to obtain KD values; also recorded: No binding”. In addition, in data set [2] (25% (w/v) fetal bovine serum, 25% (w/v) FBS, peptide ~1 mg/mL (500 µM on average), 42 h, TCA precipitation, RP-HPLC C18, UV 210 nm, peak area vs t = 0, mean of at least triplicates, read-out: residual concentration after 42 h), the remaining at 42 h, 500 µM came out at 85%.
Take `CC(C)C[C@@H]1NC(=O)[C@](C)(NC(=O)[C@H](Cc2ccc(O)cc2)NC(=O)[C@H](CCC(=O)O)NC(=O)[C@H](CO)NC(=O)[C@H](CCCCN)NC(=O)[C@H](CO)NC(=O)[C@H](CO)NC(=O)[C@@H](N)Cc2ccccc2)CCCCCC/C=C/CCC[C@@](C)(C(=O)N[C@H](C(=O)N[C@H](C(=O)NCC(=O)O)[C@@H](C)O)C(C)C)NC(=O)[C@H](CO)NC(=O)[C@H](Cc2c[nH]c3ccccc23)NC(=O)[C@H](Cc2ccc(O)cc2)NC(=O)[C@H](Cc2ccccc2)NC(=O)CCNC1=O` [KIRCONG i/i+7] (H-FSSKSEY[R8]L[βAla]FYWS[S5]VTG-OH; staple (E) 8-15): the KD entry in data set [1] is reported as “did not allow to obtain KD values; also recorded: No binding”. The “solubility at NMR concentration in 15% TFE” value in data set [3] (H2O/TFE 85/15 v/v, NMR peptide concentration 411 µM) is reported as “poorly soluble”. Also, the “solubility in TFE/phosphate buffer (CD sample)” value in data set [3] (TFE/phosphate buffer 10 mM pH 7.4, CD sample concentration 100 µM, diluted from 100% TFE stock) is given as “not soluble”.
